# Results taken from patent publication US9695155B2, “Herbicidal substituted pyrimidinyloxy benzene compounds” (E. I. DU PONT DE NEMOURS AND COMPANY, priority 2013, dated 2017).
# Assays:
# barnyardgrass [1] = test: Test A preemergence; assay type: in vivo, Echinochloa crus-galli; conditions: for Plant response rating, Barnyardgrass: 0 to 100 scale where 0 is no effect and 100 is complete control
# Procedure, shortened: (§1)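 Scoring: eye-based comparison with untreated controls, 0 for no effect through 100 for complete control, at about day 10. Treatments: directed soil spray preemergence; foliar spray postemergence on 2–10 cm plants at the one- to two-leaf stage. Medium: loam soil with sand.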
# kochia [2] = test: Test A preemergence; assay type: in vivo, Kochia scoparia; conditions: for Plant response rating, Kochia: 0 to 100 scale where 0 is no effect and 100 is complete control
# Procedure, shortened: as §1
# ragweed [3] = test: Test A preemergence; assay type: in vivo, Ambrosia elatior; conditions: for Plant response rating, Ragweed: 0 to 100 scale where 0 is no effect and 100 is complete control
# Procedure, shortened: as §1
# Italian ryegrass [4] = test: Test A preemergence; assay type: in vivo, Lolium multiflorum; conditions: for Plant response rating, Ryegrass, Italian: 0 to 100 scale where 0 is no effect and 100 is complete control
# Procedure, shortened: as §1
# giant foxtail [5] = test: Test A preemergence; assay type: in vivo, Setaria faberii; conditions: for Plant response rating, Foxtail, Giant: 0 to 100 scale where 0 is no effect and 100 is complete control
# Procedure, shortened: as §1
# pigweed [6] = test: Test A preemergence; assay type: in vivo, Amaranthus retroflexus; conditions: for Plant response rating, Pigweed: 0 to 100 scale where 0 is no effect and 100 is complete control
# Procedure, shortened: as §1
# barnyardgrass [7] = test: Test A postemergence; assay type: in vivo, Echinochloa crus-galli; conditions: for Plant response rating, Barnyardgrass: 0 to 100 scale, 0 no effect, 100 complete control
# Procedure, shortened: as §1
# kochia [8] = test: Test A postemergence; assay type: in vivo, Kochia scoparia; conditions: for Plant response rating, Kochia: 0 to 100 scale, 0 no effect, 100 complete control
# Procedure, shortened: as §1
# ragweed [9] = test: Test A postemergence; assay type: in vivo, Ambrosia elatior; conditions: for Plant response rating, Ragweed: 0 to 100 scale, 0 no effect, 100 complete control
# Procedure, shortened: as §1
# Italian ryegrass [10] = test: Test A postemergence; assay type: in vivo, Lolium multiflorum; conditions: for Plant response rating, Ryegrass, Italian: 0 to 100 scale, 0 no effect, 100 complete control
# Procedure, shortened: as §1
# giant foxtail [11] = test: Test A postemergence; assay type: in vivo, Setaria faberii; conditions: for Plant response rating, Foxtail, Giant: 0 to 100 scale, 0 no effect, 100 complete control
# Procedure, shortened: as §1
# pigweed [12] = test: Test A postemergence; assay type: in vivo, Amaranthus retroflexus; conditions: for Plant response rating, Pigweed: 0 to 100 scale, 0 no effect, 100 complete control
# Procedure, shortened: as §1
# wheat = test: Test A postemergence; assay type: in vivo, Triticum aestivum; conditions: for Plant response rating, Wheat: 0 to 100 scale, 0 no effect, 100 complete control
# Procedure, shortened: as §1
# corn = test: Test A postemergence; assay type: in vivo, Zea mays; conditions: for Plant response rating, Corn: 0 to 100 scale, 0 no effect, 100 complete control
# Procedure, shortened: as §1
# blackgrass = test: Test A postemergence; assay type: in vivo, Alopecurus myosuroides; conditions: for Plant response rating, Blackgrass: 0 to 100 scale, 0 no effect, 100 complete control
# Procedure, shortened: as §1
# galium = test: Test A postemergence; assay type: in vivo, Galium aparine; conditions: for Plant response rating, Galium: 0 to 100 scale, 0 no effect, 100 complete control
# Procedure, shortened: as §1
# rice = test: Test B flooded paddy test; assay type: in vivo, Oryza sativa; conditions: Flood, 250 g ai/ha; 0 to 100 scale where 0 is no effect and 100 is complete control
# Procedure, shortened: (§2)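 Post-emergence paddy-water application at the 2-leaf stage, with 3 cm flood kept for the whole test. Response was judged visually relative to controls after 13 to 15 greenhouse days, 0 indicating no effect and 100 complete control.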
# sedge, umbrella = test: Test B flooded paddy test; assay type: in vivo, Cyperus difformis; conditions: Flood, 250 g ai/ha; 0 to 100 scale where 0 is no effect and 100 is complete control
# Procedure, shortened: as §2
# Heteranthera limosa = test: Test B flooded paddy test; assay type: in vivo; conditions: Flood, 250 g ai/ha; 0 to 100 scale where 0 is no effect and 100 is complete control
# Procedure, shortened: as §2
# barnyardgrass [13] = test: Test B flooded paddy test; assay type: in vivo, Echinochloa crus-galli; conditions: Flood, 250 g ai/ha; 0 to 100 scale where 0 is no effect and 100 is complete control
# Procedure, shortened: as §2
# [14] = 31 g ai/ha, visual, approximately 10 days
# [15] = 125 g ai/ha, 0 to 100 scale where 0 is no effect and 100 is complete control
structure (smiles),measurement,setting,value
CC(C)Oc1cnn(-c2c(C#N)cccc2Oc2ncc(Br)cn2)c1 [Compound 254],"Plant response rating, Barnyardgrass",barnyardgrass [1]; [14],20
same,"Barnyardgrass plant response rating (0 to 100 scale, 0 is no effect, 100 is complete control)",barnyardgrass [1]; 125 g ai/ha,80
same,"Plant response rating, Kochia",kochia [2]; [14],20
same,Kochia plant response rating (0 to 100 scale),kochia [2]; 125 g ai/ha,80
same,"Plant response rating, Ragweed",ragweed [3]; [14],0
same,Ragweed plant response rating (0 to 100 scale),ragweed [3]; 125 g ai/ha,0
same,"Plant response rating, Ryegrass, Italian",Italian ryegrass [4]; [14],0
same,"Ryegrass, Italian plant response rating (0 to 100 scale)",Italian ryegrass [4]; 125 g ai/ha,40
same,"Plant response rating, Foxtail, Giant",giant foxtail [5]; [14],30
same,"Foxtail, Giant plant response rating (0 to 100 scale)",giant foxtail [5]; 125 g ai/ha,90
same,"Plant response rating, Pigweed",pigweed [6]; [14],30
same,Pigweed plant response rating (0 to 100 scale),pigweed [6]; 125 g ai/ha,90
same,"Plant response rating, Barnyardgrass",barnyardgrass [7]; 31 g ai/ha,10
same,"Plant response rating, Barnyardgrass",barnyardgrass [7]; 125 g ai/ha,60
same,"Plant response rating, Kochia",kochia [8]; 31 g ai/ha,20
same,"Plant response rating, Kochia",kochia [8]; 125 g ai/ha,60
same,"Plant response rating, Ragweed",ragweed [9]; 31 g ai/ha,10
same,"Plant response rating, Ragweed",ragweed [9]; 125 g ai/ha,20
same,"Plant response rating, Ryegrass, Italian",Italian ryegrass [10]; 31 g ai/ha,0
same,"Plant response rating, Ryegrass, Italian",Italian ryegrass [10]; 125 g ai/ha,20
same,"Plant response rating, Foxtail, Giant",giant foxtail [11]; 31 g ai/ha,10
same,"Plant response rating, Foxtail, Giant",giant foxtail [11]; 125 g ai/ha,60
same,"Plant response rating, Pigweed",pigweed [12]; 31 g ai/ha,10
same,"Plant response rating, Pigweed",pigweed [12]; 125 g ai/ha,30
same,"Plant response rating, Wheat",wheat; 31 g ai/ha,0
same,"Plant response rating, Wheat",wheat; 125 g ai/ha,30
same,"Plant response rating, Corn",corn; 31 g ai/ha,10
same,"Plant response rating, Corn",corn; 125 g ai/ha,20
same,"Plant response rating, Blackgrass",blackgrass; 31 g ai/ha,0
same,"Plant response rating, Blackgrass",blackgrass; 125 g ai/ha,60
same,"Plant response rating, Galium",galium; 31 g ai/ha,20
same,"Plant response rating, Galium",galium; 125 g ai/ha,100
same,"Plant response rating, Rice",rice,0
same,"Plant response rating, Sedge, Umbrella","sedge, umbrella",60
same,"Plant response rating, Ducksalad",Heteranthera limosa,65
same,"Plant response rating, Barnyardgrass",barnyardgrass [13],0
FCc1cccc(Oc2ncc(Br)cn2)c1-n1cc(Br)cn1 [Compound 125],Barnyardgrass plant response rating (0 to 100 scale),barnyardgrass [1]; 31 g ai/ha,10
same,"Plant response rating, Barnyardgrass",barnyardgrass [1]; 125 g ai/ha,80
same,Kochia plant response rating (0 to 100 scale),kochia [2]; 31 g ai/ha,20
same,"Plant response rating, Kochia",kochia [2]; 125 g ai/ha,50
same,Ragweed plant response rating (0 to 100 scale),ragweed [3]; 31 g ai/ha,0
same,"Plant response rating, Ragweed",ragweed [3]; 125 g ai/ha,10
same,"Ryegrass, Italian plant response rating (0 to 100 scale)",Italian ryegrass [4]; 31 g ai/ha,0
same,"Plant response rating, Ryegrass, Italian",Italian ryegrass [4]; 125 g ai/ha,20
same,"Foxtail, Giant plant response rating (0 to 100 scale)",giant foxtail [5]; 31 g ai/ha,20
same,"Plant response rating, Foxtail, Giant",giant foxtail [5]; 125 g ai/ha,100
same,Pigweed plant response rating (0 to 100 scale),pigweed [6]; 31 g ai/ha,70
same,"Plant response rating, Pigweed",pigweed [6]; 125 g ai/ha,100
same,"Plant response rating, Barnyardgrass",barnyardgrass [7]; 31 g ai/ha,0
same,Barnyardgrass plant response rating,barnyardgrass [7]; [15],90
same,"Plant response rating, Kochia",kochia [8]; 31 g ai/ha,40
same,Kochia plant response rating,kochia [8]; [15],40
same,"Plant response rating, Ragweed",ragweed [9]; 31 g ai/ha,0
same,Ragweed plant response rating,ragweed [9]; [15],10
same,"Plant response rating, Ryegrass, Italian",Italian ryegrass [10]; 31 g ai/ha,0
same,"Ryegrass, Italian plant response rating",Italian ryegrass [10]; [15],10
same,"Plant response rating, Foxtail, Giant",giant foxtail [11]; 31 g ai/ha,0
same,"Foxtail, Giant plant response rating",giant foxtail [11]; [15],80
same,"Plant response rating, Pigweed",pigweed [12]; 31 g ai/ha,30
same,Pigweed plant response rating,pigweed [12]; [15],70
same,"Plant response rating, Wheat",wheat; 31 g ai/ha,0
same,Wheat plant response rating,wheat; [15],20
same,"Plant response rating, Corn",corn; 31 g ai/ha,20
same,Corn plant response rating,corn; [15],50
same,"Plant response rating, Blackgrass",blackgrass; 31 g ai/ha,40
same,Blackgrass plant response rating,blackgrass; [15],80
same,"Plant response rating, Galium",galium; 31 g ai/ha,20
same,Galium plant response rating,galium; [15],90
same,"Plant response rating, Rice",rice,0
same,"Plant response rating, Sedge, Umbrella","sedge, umbrella",70
same,"Plant response rating, Ducksalad",Heteranthera limosa,70
same,"Plant response rating, Barnyardgrass",barnyardgrass [13],0
